Results from ChEMBL document CHEMBL1150975, “Biochemical and three-dimensional-structural study of the specific inhibition of protein kinase CK2 by [5-oxo-5,6-dihydroindolo-(1,2-a)quinazolin-7-yl]acetic acid (IQA)” (Biochem J, 2003).
pIC50: −log10 of the molar value.

Legend:
[1] = target: Tyrosine-protein kinase CSK (Homo sapiens) (UniProt P41240); test: Percent residual CSK activity in the presence of 10uM inhibitor
[2] = target: Dual specificity mitogen-activated protein kinase kinase 1 (Homo sapiens) (UniProt Q02750); test: Percent residual MKK1 activity in presence of 10uM inhibitor
[3] = target: Rho-associated protein kinase 2 (Homo sapiens) (UniProt O75116); test: Percent residual ROCK-II activity in the presence of 10uM inhibitor
Chain of Rho-associated protein kinase 2 (Homo sapiens) (O75116 whole entry, looked up): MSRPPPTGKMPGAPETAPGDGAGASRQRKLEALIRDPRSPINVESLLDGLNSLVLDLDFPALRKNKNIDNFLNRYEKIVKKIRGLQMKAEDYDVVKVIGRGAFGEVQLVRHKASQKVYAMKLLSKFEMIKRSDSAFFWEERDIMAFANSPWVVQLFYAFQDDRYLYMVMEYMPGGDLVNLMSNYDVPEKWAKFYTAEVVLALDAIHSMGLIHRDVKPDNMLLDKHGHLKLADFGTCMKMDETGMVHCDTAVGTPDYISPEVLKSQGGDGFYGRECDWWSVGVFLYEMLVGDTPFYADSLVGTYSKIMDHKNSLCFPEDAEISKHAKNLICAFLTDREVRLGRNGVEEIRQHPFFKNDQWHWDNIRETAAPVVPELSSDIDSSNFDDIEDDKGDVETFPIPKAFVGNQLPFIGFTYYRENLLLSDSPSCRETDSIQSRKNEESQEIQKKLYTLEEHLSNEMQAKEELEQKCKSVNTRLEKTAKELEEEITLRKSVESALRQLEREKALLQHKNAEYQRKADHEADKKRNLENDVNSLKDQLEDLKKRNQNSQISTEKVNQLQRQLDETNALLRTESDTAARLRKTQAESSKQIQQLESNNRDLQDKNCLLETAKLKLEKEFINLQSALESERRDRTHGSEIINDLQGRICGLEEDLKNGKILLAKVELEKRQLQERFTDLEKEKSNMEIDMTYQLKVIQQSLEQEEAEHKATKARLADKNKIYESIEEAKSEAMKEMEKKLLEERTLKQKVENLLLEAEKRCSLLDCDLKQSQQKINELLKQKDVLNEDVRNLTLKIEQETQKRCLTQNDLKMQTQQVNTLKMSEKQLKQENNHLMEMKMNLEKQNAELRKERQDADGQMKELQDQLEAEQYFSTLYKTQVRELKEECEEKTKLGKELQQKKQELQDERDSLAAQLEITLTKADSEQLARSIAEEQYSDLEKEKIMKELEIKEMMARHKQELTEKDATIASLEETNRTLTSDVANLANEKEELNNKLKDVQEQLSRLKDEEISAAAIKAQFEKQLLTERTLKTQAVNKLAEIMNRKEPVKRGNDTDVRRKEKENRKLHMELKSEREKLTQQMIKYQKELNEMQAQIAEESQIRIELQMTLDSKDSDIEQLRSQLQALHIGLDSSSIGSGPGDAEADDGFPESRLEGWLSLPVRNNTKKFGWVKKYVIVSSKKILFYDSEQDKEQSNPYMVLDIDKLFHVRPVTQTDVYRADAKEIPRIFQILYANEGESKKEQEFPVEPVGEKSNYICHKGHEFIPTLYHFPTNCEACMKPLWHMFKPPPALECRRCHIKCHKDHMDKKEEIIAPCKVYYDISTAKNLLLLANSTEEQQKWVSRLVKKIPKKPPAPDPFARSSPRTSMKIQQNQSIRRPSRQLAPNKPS

[4] = target: Insulin-like growth factor 1 receptor (Homo sapiens) (UniProt P08069); test: Percent residual IGF-1R activity in the presence of 10uM inhibitor
[5] = target: Mast/stem cell growth factor receptor Kit (Homo sapiens) (UniProt P10721); test: Percent residual c-Kit activity in the presence of 10uM inhibitor
[6] = target: Hepatocyte growth factor receptor (Homo sapiens) (UniProt P08581); test: Percent residual c-Met activity in the presence of 10uM inhibitor
[7] = target: T1, Tyrosine-protein kinase Lck (Homo sapiens, UniProt P06239); test: Percent residual Lck activity in the presence of 10uM inhibitor
Target sequence in this assay (P06239 2-509 limits assumed): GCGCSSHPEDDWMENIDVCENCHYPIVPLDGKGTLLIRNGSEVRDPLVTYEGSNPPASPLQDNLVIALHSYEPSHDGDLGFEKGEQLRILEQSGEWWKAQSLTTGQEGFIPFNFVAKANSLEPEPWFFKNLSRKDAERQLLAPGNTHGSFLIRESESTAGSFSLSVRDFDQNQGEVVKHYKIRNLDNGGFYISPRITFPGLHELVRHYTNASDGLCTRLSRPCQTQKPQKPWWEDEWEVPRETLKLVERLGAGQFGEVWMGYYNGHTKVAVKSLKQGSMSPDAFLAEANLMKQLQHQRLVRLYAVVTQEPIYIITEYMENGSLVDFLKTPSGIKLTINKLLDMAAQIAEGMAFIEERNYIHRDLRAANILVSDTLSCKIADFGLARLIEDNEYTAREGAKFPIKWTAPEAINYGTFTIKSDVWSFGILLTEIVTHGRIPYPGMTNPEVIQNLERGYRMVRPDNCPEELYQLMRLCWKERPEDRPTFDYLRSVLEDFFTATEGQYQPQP

[8] = target: Insulin receptor (Homo sapiens) (UniProt P06213); test: Percent residual Ins-R activity in the presence of 10uM inhibitor
[9] = target: Phosphatidylinositol 4,5-bisphosphate 3-kinase catalytic subunit gamma isoform (Homo sapiens, UniProt P48736); test: Inhibition of PI3K gamma
[10] = target: MAP kinase-activated protein kinase 2 (Homo sapiens) (UniProt P49137); test: Percent residual MAPKAPK2 activity in the presence of 10uM inhibitor
Chain of MAP kinase-activated protein kinase 2 (Homo sapiens) (P49137 whole entry, looked up): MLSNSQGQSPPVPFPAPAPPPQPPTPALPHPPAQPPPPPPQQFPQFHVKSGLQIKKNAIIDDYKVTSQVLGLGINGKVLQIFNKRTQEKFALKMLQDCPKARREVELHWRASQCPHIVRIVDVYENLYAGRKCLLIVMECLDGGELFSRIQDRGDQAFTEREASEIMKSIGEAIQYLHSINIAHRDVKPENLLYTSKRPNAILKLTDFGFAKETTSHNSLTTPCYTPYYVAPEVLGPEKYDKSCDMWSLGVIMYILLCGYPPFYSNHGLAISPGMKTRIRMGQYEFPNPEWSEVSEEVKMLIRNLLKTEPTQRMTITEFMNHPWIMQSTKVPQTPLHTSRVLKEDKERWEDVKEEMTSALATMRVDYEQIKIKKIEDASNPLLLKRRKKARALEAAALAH

[11] = target: Vascular endothelial growth factor receptor 3 (Homo sapiens) (UniProt P35916); test: Percent residual Flt-4 activity in the presence of 10uM inhibitor
[12] = target: Glycogen synthase kinase-3 beta (Homo sapiens, UniProt P49841); test: Inhibition of GSK3-beta
[13] = target: T2, Dual specificity tyrosine-phosphorylation-regulated kinase 1A (Homo sapiens, UniProt Q13627); test: Percent residual DYRK1a activity in the presence of 10uM inhibitor
[14] = target: RAC-alpha serine/threonine-protein kinase (Homo sapiens) (UniProt P31749); test: Percent residual PKBalpha activity in the presence of 10uM inhibitor
Chain of RAC-alpha serine/threonine-protein kinase (Homo sapiens) (P31749 whole entry): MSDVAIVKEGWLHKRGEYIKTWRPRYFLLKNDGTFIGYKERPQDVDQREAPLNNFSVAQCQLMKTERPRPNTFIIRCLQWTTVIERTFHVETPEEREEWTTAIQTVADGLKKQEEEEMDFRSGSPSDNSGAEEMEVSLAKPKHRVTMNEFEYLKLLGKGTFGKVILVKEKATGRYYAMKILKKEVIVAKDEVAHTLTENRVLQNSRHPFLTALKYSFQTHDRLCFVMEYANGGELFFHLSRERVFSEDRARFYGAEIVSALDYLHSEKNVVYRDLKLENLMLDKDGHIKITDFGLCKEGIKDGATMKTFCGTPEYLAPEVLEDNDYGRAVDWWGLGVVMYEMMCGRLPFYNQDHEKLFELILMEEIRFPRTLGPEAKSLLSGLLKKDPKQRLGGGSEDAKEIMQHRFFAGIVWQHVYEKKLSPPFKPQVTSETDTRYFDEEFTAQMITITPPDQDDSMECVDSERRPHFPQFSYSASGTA

[15] = target: Ribosomal protein S6 kinase alpha-1 (Homo sapiens) (UniProt Q15418); test: Percent residual MAPKAPK1 activity in the presence of 10uM inhibitor
Chain of Ribosomal protein S6 kinase alpha-1 (Homo sapiens) (Q15418 whole entry): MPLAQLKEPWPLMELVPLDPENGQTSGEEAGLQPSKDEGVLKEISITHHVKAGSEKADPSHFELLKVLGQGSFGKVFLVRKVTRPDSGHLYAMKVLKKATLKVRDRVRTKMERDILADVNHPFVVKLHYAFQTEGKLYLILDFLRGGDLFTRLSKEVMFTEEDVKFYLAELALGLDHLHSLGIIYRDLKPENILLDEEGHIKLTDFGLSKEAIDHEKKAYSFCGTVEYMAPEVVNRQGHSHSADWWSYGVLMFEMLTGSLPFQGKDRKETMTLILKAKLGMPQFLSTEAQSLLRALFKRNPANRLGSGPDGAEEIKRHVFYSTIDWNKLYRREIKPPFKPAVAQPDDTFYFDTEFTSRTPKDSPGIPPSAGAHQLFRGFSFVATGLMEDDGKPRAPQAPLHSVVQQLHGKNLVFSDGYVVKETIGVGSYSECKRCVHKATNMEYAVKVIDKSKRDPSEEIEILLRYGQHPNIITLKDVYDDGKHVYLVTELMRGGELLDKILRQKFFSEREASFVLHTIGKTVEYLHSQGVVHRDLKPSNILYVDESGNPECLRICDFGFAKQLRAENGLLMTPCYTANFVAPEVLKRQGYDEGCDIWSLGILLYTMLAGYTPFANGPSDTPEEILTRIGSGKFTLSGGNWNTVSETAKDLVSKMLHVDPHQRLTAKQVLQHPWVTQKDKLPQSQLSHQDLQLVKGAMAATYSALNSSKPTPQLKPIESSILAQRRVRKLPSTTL

[16] = target: Receptor-type tyrosine-protein kinase FLT3 (Homo sapiens) (UniProt P36888); test: Percent residual Flt-3 activity in the presence of 10uM inhibitor
[17] = target: Angiopoietin-1 receptor (Homo sapiens) (UniProt Q02763); test: Percent residual Tek activity in the presence of 10uM inhibitor
[18] = target: RAF proto-oncogene serine/threonine-protein kinase (Homo sapiens) (UniProt P04049); test: Percent residual c-Raf-1 activity in the presence of 10uM inhibitor
[19] = target: Vascular endothelial growth factor receptor 1 (Homo sapiens) (UniProt P17948); test: Percent residual Flt-1 activity in the presence of 10uM inhibitor
[20] = target: T3, Serine/threonine-protein kinase Sgk1 (Homo sapiens) (UniProt O00141); test: Percent residual SGK activity in the presence of 10uM inhibitor
T3 sequence (whole entry): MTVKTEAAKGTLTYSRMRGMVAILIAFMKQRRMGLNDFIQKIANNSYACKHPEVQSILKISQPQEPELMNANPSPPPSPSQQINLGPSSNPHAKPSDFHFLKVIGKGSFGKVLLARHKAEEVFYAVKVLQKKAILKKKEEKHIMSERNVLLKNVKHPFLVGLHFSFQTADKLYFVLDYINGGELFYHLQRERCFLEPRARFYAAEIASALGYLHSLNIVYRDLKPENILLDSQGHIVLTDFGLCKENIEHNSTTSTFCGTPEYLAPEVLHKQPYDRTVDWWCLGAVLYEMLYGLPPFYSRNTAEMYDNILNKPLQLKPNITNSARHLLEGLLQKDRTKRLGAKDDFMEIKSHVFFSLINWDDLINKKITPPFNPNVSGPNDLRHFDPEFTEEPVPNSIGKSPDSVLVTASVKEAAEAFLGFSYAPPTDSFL

[21] = target: 5'-AMP-activated protein kinase catalytic subunit alpha-2 (Homo sapiens) (UniProt P54646); test: Percent residual AMPK activity in the presence of 10uM inhibitor
Chain of 5'-AMP-activated protein kinase catalytic subunit alpha-2 (Homo sapiens) (P54646 whole entry, looked up): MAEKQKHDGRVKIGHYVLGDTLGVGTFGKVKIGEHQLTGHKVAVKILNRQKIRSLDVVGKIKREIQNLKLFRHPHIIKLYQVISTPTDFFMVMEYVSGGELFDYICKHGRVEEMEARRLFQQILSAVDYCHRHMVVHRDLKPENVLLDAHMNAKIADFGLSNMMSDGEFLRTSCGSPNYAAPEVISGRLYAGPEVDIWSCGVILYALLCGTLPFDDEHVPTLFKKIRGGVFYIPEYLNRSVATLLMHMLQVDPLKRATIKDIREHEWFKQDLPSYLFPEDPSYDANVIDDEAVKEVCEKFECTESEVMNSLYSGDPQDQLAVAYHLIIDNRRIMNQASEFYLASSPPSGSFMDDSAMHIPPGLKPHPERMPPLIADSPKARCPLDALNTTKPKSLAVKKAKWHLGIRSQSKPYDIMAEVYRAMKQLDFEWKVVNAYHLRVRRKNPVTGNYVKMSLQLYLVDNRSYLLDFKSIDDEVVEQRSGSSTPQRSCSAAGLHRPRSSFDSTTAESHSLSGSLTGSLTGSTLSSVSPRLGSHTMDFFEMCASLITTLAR

[22] = Percent residual Phosphorylase kinase activity in the presence of 10uM inhibitor
[23] = target: Ribosomal protein S6 kinase beta-1 (Homo sapiens) (UniProt P23443); test: Percent residual S6K1 activity in the presence of 10uM inhibitor
Chain of Ribosomal protein S6 kinase beta-1 (Homo sapiens) (P23443 whole entry, looked up): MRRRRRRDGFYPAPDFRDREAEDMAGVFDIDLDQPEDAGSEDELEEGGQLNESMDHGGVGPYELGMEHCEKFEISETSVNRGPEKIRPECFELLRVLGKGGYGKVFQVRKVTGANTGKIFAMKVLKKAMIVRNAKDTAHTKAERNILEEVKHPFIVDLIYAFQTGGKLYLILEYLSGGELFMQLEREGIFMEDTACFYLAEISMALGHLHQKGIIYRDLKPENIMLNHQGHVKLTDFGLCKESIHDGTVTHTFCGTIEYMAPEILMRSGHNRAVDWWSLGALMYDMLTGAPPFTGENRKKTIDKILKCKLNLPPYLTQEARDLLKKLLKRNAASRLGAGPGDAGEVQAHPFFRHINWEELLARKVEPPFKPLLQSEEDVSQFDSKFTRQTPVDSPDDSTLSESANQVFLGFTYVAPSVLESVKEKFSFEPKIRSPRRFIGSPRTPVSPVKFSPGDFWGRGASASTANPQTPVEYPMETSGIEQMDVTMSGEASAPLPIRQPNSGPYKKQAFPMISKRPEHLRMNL

[24] = target: Proto-oncogene tyrosine-protein kinase Src (Homo sapiens) (UniProt P12931); test: Percent residual c-Src activity in the presence of 10uM inhibitor
[25] = target: Mitogen-activated protein kinase kinase kinase kinase 5 (Homo sapiens) (UniProt Q9Y4K4); test: Percent residual G-CK activity in the presence of 10uM inhibitor
[26] = target: Fibroblast growth factor receptor 1 (Homo sapiens) (UniProt P11362); test: Percent residual FGFR1 activity in the presence of 10uM inhibitor
[27] = target: T4, Mitogen-activated protein kinase 12 (Homo sapiens) (UniProt P53778); test: Percent residual p38-gamma activity in the presence of 10uM inhibitor
T4 sequence (whole entry): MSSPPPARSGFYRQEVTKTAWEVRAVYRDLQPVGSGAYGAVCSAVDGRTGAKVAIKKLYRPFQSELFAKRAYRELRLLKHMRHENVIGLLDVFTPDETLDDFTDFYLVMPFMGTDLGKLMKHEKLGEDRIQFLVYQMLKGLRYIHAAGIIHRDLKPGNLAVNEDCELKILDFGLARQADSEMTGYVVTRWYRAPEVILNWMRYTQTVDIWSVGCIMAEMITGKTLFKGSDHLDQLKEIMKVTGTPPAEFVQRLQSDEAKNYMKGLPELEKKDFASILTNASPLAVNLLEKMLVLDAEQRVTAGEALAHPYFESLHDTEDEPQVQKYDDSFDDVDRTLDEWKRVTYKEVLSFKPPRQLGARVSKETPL

[28] = target: Tyrosine-protein kinase SYK (Homo sapiens) (UniProt P43405); test: Percent residual Syk activity in the presence of 10uM inhibitor
[29] = target: T1, Tyrosine-protein kinase Lck; test: Inhibition of Lck
[30] = target: Epidermal growth factor receptor (Homo sapiens) (UniProt P00533); test: Percent residual Her-1 activity in the presence of 10uM inhibitor
[31] = target: Vascular endothelial growth factor receptor 2 (Homo sapiens) (UniProt P35968); test: Percent residual KDR activity in the presence of 10uM inhibitor
[32] = target: T2, Dual specificity tyrosine-phosphorylation-regulated kinase 1A; test: Inhibition of DYRK1a
[33] = target: Platelet-derived growth factor receptor beta (Homo sapiens) (UniProt P09619); test: Percent residual PDGFRbeta activity in the presence of 10uM inhibitor
[34] = target: Tyrosine-protein kinase ABL1 (Homo sapiens) (UniProt P00519); test: Percent residual Abl activity in the presence of 10uM inhibitor

Chain of Tyrosine-protein kinase CSK (Homo sapiens) (P41240 2-450 limits assumed): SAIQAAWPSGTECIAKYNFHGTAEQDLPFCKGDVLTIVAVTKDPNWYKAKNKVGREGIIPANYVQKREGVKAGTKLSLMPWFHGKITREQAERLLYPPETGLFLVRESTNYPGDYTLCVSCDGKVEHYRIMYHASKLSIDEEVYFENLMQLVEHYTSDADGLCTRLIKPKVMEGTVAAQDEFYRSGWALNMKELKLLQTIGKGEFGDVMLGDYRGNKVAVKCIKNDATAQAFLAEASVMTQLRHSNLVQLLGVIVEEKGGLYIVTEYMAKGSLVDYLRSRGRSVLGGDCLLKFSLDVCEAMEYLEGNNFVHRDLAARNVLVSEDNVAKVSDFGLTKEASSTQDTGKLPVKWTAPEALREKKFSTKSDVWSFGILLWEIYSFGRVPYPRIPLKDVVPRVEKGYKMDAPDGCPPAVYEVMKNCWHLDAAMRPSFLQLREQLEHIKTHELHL

| Structure (SMILES) | Activity [1] [%] | Activity [2] [%] | Activity [3] [%] | Activity [7] [%] | Activity [10] [%] | Activity [13] [%] | Activity [14] [%] | Activity [15] [%] | Activity [20] [%] | Activity [21] [%] | Activity [22] [%] | Activity [23] [%] | Activity [25] [%] | Activity [27] [%] | Activity [28] [%] | further results |
| --- | --- | --- | --- | --- | --- | --- | --- | --- | --- | --- | --- | --- | --- | --- | --- | --- |
| O=C(O)Cc1c2ccccc2n2c1[nH]c(=O)c1ccccc12 | 82 | 85 | 94 | 52 | 70 | 50 | 84 | 91 | 85 | 92 | 79 | 84 | 98 | 96 | 87 | Activity [4]: 80%; Activity [5]: 80%; Activity [6]: 80%; Activity [8]: 80%; pIC50 [9]: < 3.70; Activity [11]: 80%; pIC50 [12]: 4.85; Activity [16]: 80%; Activity [17]: 80%; Activity [18]: 80%; Activity [19]: 80%; Activity [24]: 80%; Activity [26]: 80%; pIC50 [29]: 4.96; Activity [30]: 80%; Activity [31]: 80%; pIC50 [32]: 5.10; Activity [33]: 80%; Activity [34]: 80% |
| O=c1cc(-c2ccc(O)cc2)oc2cc(O)cc(O)c12 [APIGENIN] | 77 | 98 | 88 | 45 | 91 | 20 | 82 | 86 | 41 | 57 | 70 | 65 | 96 | 102 | 95 |  |
| Cc1cc(O)c2c(c1)C(=O)c1cc(O)cc(O)c1C2=O [EMODIN] | 109 | 111 | 90 | 79 | 82 | 29 | 82 | 103 | 55 | 89 | 104 | 84 | 89 | 92 | 96 |  |
